Active and inactive are the calls of the source.
Columns and labels:
Cytochrome P450 2D6 = Cytochrome P450 2D6 (Homo sapiens, UniProt P10635);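 note: CYP2D6 member of a cytochrome P450 panel assay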
[1] = molecular target: T1, Corticotropin-releasing factor receptor 2/Corticotropin-releasing factor-binding protein (Homo sapiens, UniProt P24387+Q13324); assay: Dose Response confirmation of uHTS hits for small molecule antagonists of the CRF-binding protein and CRF-R2 receptor complex.; type: functional; conditions: read-out: IC50_Mean
T1 sequence (Q13324 whole entry): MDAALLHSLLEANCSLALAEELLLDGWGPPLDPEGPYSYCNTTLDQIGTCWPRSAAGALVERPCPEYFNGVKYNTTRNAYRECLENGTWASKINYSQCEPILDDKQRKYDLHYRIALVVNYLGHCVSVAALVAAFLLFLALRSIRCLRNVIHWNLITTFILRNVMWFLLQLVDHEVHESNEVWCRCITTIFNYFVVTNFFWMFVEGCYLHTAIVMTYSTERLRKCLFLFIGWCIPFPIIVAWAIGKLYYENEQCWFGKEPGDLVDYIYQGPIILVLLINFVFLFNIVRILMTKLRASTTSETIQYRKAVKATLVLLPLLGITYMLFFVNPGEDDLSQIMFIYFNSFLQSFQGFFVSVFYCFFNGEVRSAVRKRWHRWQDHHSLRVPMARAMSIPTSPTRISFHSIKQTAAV
T1 sequence (P24387 whole entry): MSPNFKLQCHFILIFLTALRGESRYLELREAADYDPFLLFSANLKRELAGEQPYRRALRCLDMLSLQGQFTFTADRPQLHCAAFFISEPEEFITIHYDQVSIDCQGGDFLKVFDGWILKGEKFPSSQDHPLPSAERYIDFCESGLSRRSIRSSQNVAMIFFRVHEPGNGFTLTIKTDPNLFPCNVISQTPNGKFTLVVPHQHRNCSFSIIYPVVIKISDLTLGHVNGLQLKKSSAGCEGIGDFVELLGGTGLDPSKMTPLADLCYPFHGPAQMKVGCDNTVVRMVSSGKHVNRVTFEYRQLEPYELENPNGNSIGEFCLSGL

[2] = molecular target: T1, Corticotropin-releasing factor receptor 2/Corticotropin-releasing factor-binding protein; assay: activators of CRF receptor 2 with binding protein – uHTS hits, confirmation (AID 602473); type: functional; conditions: read-out: EC50_Mean
Cytochrome P450 2C9 = Cytochrome P450 2C9 (Homo sapiens, UniProt P11712)
Cytochrome P450 2C9, sequence (P11712 whole entry): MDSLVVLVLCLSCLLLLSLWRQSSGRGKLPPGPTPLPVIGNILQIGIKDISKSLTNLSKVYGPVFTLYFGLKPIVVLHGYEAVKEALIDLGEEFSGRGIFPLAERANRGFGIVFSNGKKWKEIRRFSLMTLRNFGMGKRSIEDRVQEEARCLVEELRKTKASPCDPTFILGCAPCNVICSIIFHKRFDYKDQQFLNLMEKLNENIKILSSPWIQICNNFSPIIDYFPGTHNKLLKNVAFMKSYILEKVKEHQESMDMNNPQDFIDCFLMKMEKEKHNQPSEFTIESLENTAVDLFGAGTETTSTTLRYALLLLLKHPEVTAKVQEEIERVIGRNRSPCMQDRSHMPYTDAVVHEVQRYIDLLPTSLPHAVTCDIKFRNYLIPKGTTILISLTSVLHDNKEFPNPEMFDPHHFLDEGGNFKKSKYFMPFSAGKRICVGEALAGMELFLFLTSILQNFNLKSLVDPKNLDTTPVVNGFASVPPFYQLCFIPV

[3] = blockers of CRF-binding protein–CRF-R2 complex – cell-based, uHTS hits, 384-well, dose response (AID 651639); type: functional, Homo sapiens; conditions: read-out: IC50_Mean
[4] = molecular target: T2, Adenosylmethionine-8-amino-7-oxononanoate aminotransferase (Mycobacterium tuberculosis, UniProt P9WQ81); assay: Mycobacterium tuberculosis BioA enzyme inhibitor Measured in Biochemical System Using Plate Reader - 2163-02_Inhibitor_Dose_CherryPick_Activity.; type: functional, Mycobacterium tuberculosis UT205
T2 sequence (P9WQ81 whole entry): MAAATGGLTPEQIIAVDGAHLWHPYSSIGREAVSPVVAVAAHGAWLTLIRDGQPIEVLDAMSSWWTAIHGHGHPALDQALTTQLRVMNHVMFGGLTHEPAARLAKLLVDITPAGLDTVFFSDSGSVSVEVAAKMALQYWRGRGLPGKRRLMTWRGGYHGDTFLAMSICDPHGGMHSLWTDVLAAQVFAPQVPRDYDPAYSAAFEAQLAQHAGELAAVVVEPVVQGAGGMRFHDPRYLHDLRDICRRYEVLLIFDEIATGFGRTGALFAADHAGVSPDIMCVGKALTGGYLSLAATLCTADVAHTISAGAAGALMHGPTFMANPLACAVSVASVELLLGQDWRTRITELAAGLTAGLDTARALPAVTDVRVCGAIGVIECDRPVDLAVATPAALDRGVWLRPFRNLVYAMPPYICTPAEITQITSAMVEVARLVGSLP

[5] = molecular target: FAD-linked sulfhydryl oxidase ALR (Homo sapiens, UniProt P55789); assay: ALR-catalysed DTT oxidation blockers – biochemical, H2O2 detection, luminescence, cherry-pick, dose response (AID 493248)
FAD-linked sulfhydryl oxidase ALR, sequence (P55789 whole entry): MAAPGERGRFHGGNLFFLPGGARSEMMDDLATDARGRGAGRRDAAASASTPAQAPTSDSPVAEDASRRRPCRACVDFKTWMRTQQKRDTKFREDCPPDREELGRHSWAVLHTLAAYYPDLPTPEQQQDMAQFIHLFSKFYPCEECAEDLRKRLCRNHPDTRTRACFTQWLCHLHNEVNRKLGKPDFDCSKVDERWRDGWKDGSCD

[6] = molecular target: T3, Long-chain-fatty-acid--AMP ligase FadD28 (Mycobacterium tuberculosis, UniProt P9WQ59); assay: Fluorescence polarization aasay to screen for inhibitors that compete for the binding of FadD28 to a bisubstrate Measured in Biochemical System Using Plate Reader - 2147-01_Inhibitor_Dose_CherryPick_Activity.; type: functional, Mycobacterium tuberculosis H37Rv
T3 sequence (P9WQ59 whole entry): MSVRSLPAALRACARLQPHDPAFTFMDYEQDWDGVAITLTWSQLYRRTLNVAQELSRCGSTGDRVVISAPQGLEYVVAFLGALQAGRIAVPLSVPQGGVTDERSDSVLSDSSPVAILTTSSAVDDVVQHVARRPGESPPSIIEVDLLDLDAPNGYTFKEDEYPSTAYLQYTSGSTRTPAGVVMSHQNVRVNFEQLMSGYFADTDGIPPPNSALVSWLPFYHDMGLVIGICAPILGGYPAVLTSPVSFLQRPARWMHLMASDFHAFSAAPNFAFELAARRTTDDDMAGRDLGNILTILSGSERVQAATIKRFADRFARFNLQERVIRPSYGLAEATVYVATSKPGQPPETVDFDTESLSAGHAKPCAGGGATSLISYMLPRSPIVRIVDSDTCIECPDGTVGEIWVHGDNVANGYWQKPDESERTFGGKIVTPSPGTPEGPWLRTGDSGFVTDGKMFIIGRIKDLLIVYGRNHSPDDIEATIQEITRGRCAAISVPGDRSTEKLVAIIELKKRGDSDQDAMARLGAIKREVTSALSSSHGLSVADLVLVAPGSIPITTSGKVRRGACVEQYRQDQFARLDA

Cytochrome P450 2D6, sequence (P10635 whole entry): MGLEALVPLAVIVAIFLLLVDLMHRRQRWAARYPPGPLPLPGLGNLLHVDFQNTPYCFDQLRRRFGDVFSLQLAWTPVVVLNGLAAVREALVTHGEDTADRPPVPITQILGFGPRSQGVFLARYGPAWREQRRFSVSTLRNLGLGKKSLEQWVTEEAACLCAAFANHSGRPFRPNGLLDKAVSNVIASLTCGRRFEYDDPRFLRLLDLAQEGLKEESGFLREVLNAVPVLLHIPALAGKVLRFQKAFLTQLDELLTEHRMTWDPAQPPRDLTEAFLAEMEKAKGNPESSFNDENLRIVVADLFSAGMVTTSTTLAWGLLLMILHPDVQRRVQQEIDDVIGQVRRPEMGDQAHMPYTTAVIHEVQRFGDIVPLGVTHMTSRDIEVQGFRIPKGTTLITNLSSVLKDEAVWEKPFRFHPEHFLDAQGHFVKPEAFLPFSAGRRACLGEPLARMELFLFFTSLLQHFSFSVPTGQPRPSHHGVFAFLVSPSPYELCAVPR

Row | Compound | IC50 [1] | EC50 [2] | IC50 [3] | AC50 [4] | other results
1 | N#Cc1cccc(C(c2nnnn2C2CCCC2)N2CCCCCC2)c1 (configuration not stated) | 20.7 µM (active) | > 53 µM (inactive) | > 20 µM (inactive) |  | AC50 (Cytochrome P450 2D6): 11.2 µM (inconclusive); AC50 (Cytochrome P450 2C9): 35.5 µM (inconclusive)
2 | CCC(c1nnnn1C1CCCC1)N1CCN(Cc2ccccc2)CC1 (configuration not stated) | < 0.368 µM (active) | > 53 µM (inactive) | > 20 µM (inactive) |  | 
3 | Cc1cc(C(=O)CSc2nncs2)c(C)n1-c1ccc2c(c1)OCO2 |  |  |  | 1.67 µM (active) | 
4 | COc1ccc(NC2c3ccccc3C(=O)N2c2cccnc2)cc1Cl (configuration not stated) |  |  |  | 4.04 µM (active) | AC50 [5]: 4.34 µM (active)
5 | COC(=O)c1cc(OC)c(OC)cc1NC(=O)c1c(-c2ccccc2)noc1C | 16.2 µM (active) | > 53 µM (inactive) | 1.87 µM (active) |  | 
6 | O=C(COC(=O)c1ccc(O)cc1O)Nc1cccc2ccccc12 |  |  |  |  | AC50 [6]: > 100 µM (inactive)
7 | CC(=O)N1CC[C@@H]2[C@@H](CO)N(C)c3ccc(-c4cccc(F)c4)cc3[C@@H]21 |  |  |  | 0.832 µM (active) | 
8 | COc1cc(C(=O)Nc2cccnc2)cc(OC)c1OC |  |  |  | 2.14 µM (active) | 

— ChEMBL document CHEMBL1201862, “PubChem BioAssay data set” (2004)
